# Test results published in patent publication US20220233471A1, “PRODRUG COMPOSITIONS AND METHODS OF TREATMENT” (AQUESTIVE THERAPEUTICS, INC., priority 2021, published 2022).
# Entries after “also recorded” stand apart in the source; their conditions may differ.
# Tests used:
# [1] = aerodynamic particle size of exposure aerosol (Aerodynamic Particle Sizer); format: physicochemical; conditions: exposure aerosol of micronized powder
# Text: Mass median aerodynamic diameter (MMAD) of AQEP-09 was 1.57 μm (Geometric Standard Deviation (GSD) 1.74) and MMAD for Dipivefrin was 1.47 μm (GSD 2.63).
# [2] = test system: 3D culture model (EpiAirways, MatTek) of human lung epithelial cells
# Procedure: (§1) Epinephrine prodrugs were evaluated. In vitro inhalation models were employed. In particular, an esterase hydrolysis assay was employed using human branchoalveolar lavage (BAL) fluid to examine prodrug stability. A permeability assay using in vitro a 3D culture model (EpiAirways, MatTek) of human lung epithelial cells was also performed. The 3D culture system mimics the structure of lungs, allowing for study of the hydrolysis of prodrugs in the lungs by esterases and the systemic permeability data. The EpiAirway 3D culture includes a ciliated apical surface, mucociliary epithelium and microporous membrane.
# In vitro permeability of the 3D culture was studied.
# The Franz diffusion cell apparatus consists of two chambers separated by a membrane. The permeation studies were conducted using the 3D lung cell culture. The tissue membrane separates the donor compartment containing the prodrug and the receptor compartment containing the collection media whish was selected to provide sink conditions throughout the experiment.
# (§2) Compounds were incubated at different concentrations (5 mM, 10 mM, and 50 mM). Cell viability was assessed by LDH Cytotoxicity Detection kit (Takara # MK401) and MTT tissue viability assay kit (MatTek, # MTT-100). Receiver media were removed at different timepoints, 0.5, 1, 2, 3, 4, 6 hrs to test permeability; Samples were extracted and analyzed by an LC-MS method.
# (§3) Referring to FIGS. 3C-3D Dipivefrin and AQEP-09 toxicity and permeability using human lung epithelial cells was also studied in the EpiAirway model. Compounds were incubated at different concentrations (0.1 mM, 1 mM, 2 mM) and cell viability was assessed by LDH release assay and MTT assay. See, e.g., Aysun Adan, Yağmur Kiraz and Yusuf Baran, “Cell Proliferation and Cytotoxicity Assays”, Current Pharmaceutical Biotechnology (2016) 17: 1213, which is incorporated by reference in its entirety. Receiver media were removed at different timepoints, 1, 2, 3, 4 hrs to test permeability. Samples were extracted and analyzed by LC-MS method.
# [3] = esterase hydrolysis assay in human BAL fluid (prodrug stability); format: in vitro ADME; conditions: Human BAL fluid from 2 subjects; 1 μM; stabilizer sodium metabisulfite 8.9 mM; LC-MS
# Procedure: Epinephrine prodrugs were evaluated. In vitro inhalation models were employed.
# Hydrolysis of dipivefrin or AQEP-09 was studied in vitro in Human BAL fluid by measuring the epinephrine concentration. Frozen BAL fluid was used from 2 subjects. Compounds were incubated at 1 μM in the presence of a stabilizer (sodium metabisulfite, 8.9 mM). Samples were removed after stopping the enzyme reaction using NaF or SigmaFast at different timepoints. Samples were extracted and analyzed by LC-MS method. […] Less than 5% hydrolysis was observed.
# [4] = test system: human lung epithelial cells; experiment: LDH cytotoxicity / release assay in EpiAirway 3D culture; format: cell-based; conditions: for toxicity / cell viability in the LDH assay: 0.1 mM, 1 mM, 2 mM; for cell viability in the LDH assay: 5 mM, 10 mM, 50 mM
# Procedure: as §1, §2, §3
# [5] = excipient compatibility study with dry powder inhalation carriers; format: physicochemical
# Procedure: Compatibility of epinephrine prodrugs Disobutyryl L-epinephrine (AQEP-09) and Dipivefrin was studied with common carriers used for dry powder inhalation applications. Lactose monohydrate, Lactose anhydrous and Mannitol were used for the stability evaluation. Mixtures of the micronized API and the carriers were tested under stability conditions, 25° C./60%RH and 40° C./75%RH.
# [6] = pharmacokinetics of epinephrine in Beagle dogs after bolus inhalation of prodrugs or IM EpiPen; format: in vivo; conditions: inhalation 0.4 vs 0.2 mg/kg (target 2×)
# [7] = particle size distribution of jet-milled (micronized) prodrugs; format: physicochemical; conditions: feed rate 840 g/hr
# Procedure: Both dipivefrin and Diisobutyryl L-epinephrine were micronized using the jet milling process using nitrogen. The effect of pressure and feed rates were determined. The particle sizes of the micronized material are shown in the Table 1 and micronized/milled material suitable for drug powder inhalation (2-5 μm) were manufactured.
# [8] = stability in sodium metabisulfite; format: physicochemical
# Text: A prodrug can present improved hydrophobicity, better permeation, dose reduction, and enhanced speed of absorption. It can also provide alternative compositions with unique stability profiles. […] A prodrug that is not absorbed in the stomach can also avoid, minimize or eliminate the side effect of epigastric pain. Moreover, a prodrug can result in reduced adrenergic receptor binding, resulting in reduced variability of vasoconstriction and more stability.
# [9] = Lactose Anhydrous, 25° C./60% RH, 0 weeks
# [10] = Lactose Anhydrous, 25° C./60% RH, 2 weeks
# [11] = Lactose Anhydrous, 25° C./60% RH, 4 weeks
# [12] = Lactose Anhydrous, 40° C./75% RH, 0 weeks
# [13] = Lactose Anhydrous, 40° C./75% RH, 2 weeks
# [14] = Lactose Anhydrous, 40° C./75% RH, 4 weeks
# [15] = Lactose Monohydrate, 25° C./60% RH, 0 weeks
# [16] = Lactose Monohydrate, 25° C./60% RH, 2 weeks
# [17] = Lactose Monohydrate, 25° C./60% RH, 4 weeks
# [18] = Lactose Monohydrate, 40° C./75% RH, 0 weeks
# [19] = Lactose Monohydrate, 40° C./75% RH, 2 weeks
# [20] = Lactose Monohydrate, 40° C./75% RH, 4 weeks
# [21] = Mannitol, 25° C./60% RH, 0 weeks
# [22] = Mannitol, 25° C./60% RH, 2 weeks
# [23] = Mannitol, 25° C./60% RH, 4 weeks
# [24] = Mannitol, 40° C./75% RH, 0 weeks
# [25] = Mannitol, 40° C./75% RH, 2 weeks
# [26] = Mannitol, 40° C./75% RH, 4 weeks
# [27] = nitrogen milling pressure 1.5 bar
# [28] = nitrogen milling pressure 3.5 bar
Structure (SMILES),GSD [1],MMAD [1],hydrolysis to epinephrine [3],toxicity / cell viability in the LDH assay [4],"Assay (Percent Label Claim) [5, 9]","Assay (Percent Label Claim) [5, 10]","Assay (Percent Label Claim) [5, 11]","Assay (Percent Label Claim) [5, 12]","Assay (Percent Label Claim) [5, 13]","Assay (Percent Label Claim) [5, 14]","Assay (Percent Label Claim) [5, 15]","Assay (Percent Label Claim) [5, 16]","Assay (Percent Label Claim) [5, 17]","Assay (Percent Label Claim) [5, 18]","Assay (Percent Label Claim) [5, 19]","Assay (Percent Label Claim) [5, 20]","Assay (Percent Label Claim) [5, 21]","Assay (Percent Label Claim) [5, 22]","Assay (Percent Label Claim) [5, 23]","Assay (Percent Label Claim) [5, 24]",other results
"CNCC(O)c1ccc(OC(=O)C(C)C)c(OC(=O)C(C)C)c1 [AQEP-09, Diisobutyryl L-epinephrine]",1.74,1.57 μm,minimal hydrolysis,did not show any toxicity; also recorded: no or less toxicity,100%,103%,103%,100%,97%,87%,100%,100%,97%,100%,94%,83%,100%,96%,96%,100%,"permeability compared to Dipivefrin [2]: lower permeability; increase in dose that shows comparable permeability to Dipivefrin ([2]; human): 50%; Assay (Percent Label Claim) [5, 25]: 95%; Assay (Percent Label Claim) [5, 26]: 84%; Overall dose response [6]: slightly less than dose proportional; Particle size d10 [7, 27]: d10-10.30 μm; Particle size d50 [7, 27]: d50-55.70 μm; Particle size d90 [7, 27]: d90-132.75 μm; Particle size d10 [7, 28]: d10-0.46 μm; Particle size d50 [7, 28]: d50-1.12 μm; Particle size d90 [7, 28]: d90-2.37 μm"
CNCC(O)c1ccc(OC(=O)C(C)(C)C)c(OC(=O)C(C)(C)C)c1 (stereo not drawn) [Dipivefrin],2.63,1.47 μm,minimal hydrolysis,lower cell viability,100%,100%,96%,100%,99%,95%,100%,101%,96%,100%,96%,81%,100%,101%,98%,100%,"permeability in human lung model [2]: dose dependent permeability; stability in sodium metabisulfite [8]: unstable; cell viability in the LDH assay ([4]; 6 h): cell viability was reduced at all doses; cell viability in the LDH assay ([4]; 24 hr): viability was improved; Assay (Percent Label Claim) [5, 25]: 101%; Assay (Percent Label Claim) [5, 26]: 95%; Particle size d10 [7, 27]: d10-0.91 μm; Particle size d50 [7, 27]: d50-6.24 μm; Particle size d90 [7, 27]: d90-13.18 μm; Particle size d10 [7, 28]: d10-0.53 μm; Particle size d50 [7, 28]: d50-1.27 μm; Particle size d90 [7, 28]: d90-2.92 μm"
